Data taken from US12397058B2, “Metabolically stable prodrugs” (TSRL, Inc., priority 2018, dated 2025).
Like-named read-outs stand apart in the source and are kept apart here.

Columns and labels:
[1] = test system: HSV1 E377; test: microbe, parasite or virus in culture; format: cell-based, Herpes Simplex Virus 1
Protocol: (§1) Screening Assays for HSV-1, HSV-2, CMV, and VZV
(§2) Cells. Human foreskin fibroblast (HFF) cells were prepared from human foreskin tissue. The tissue was incubated at 4° C. for 4 h in Clinical Medium and then placed in phosphate buffered saline (PBS) to remove the red blood cells, and resuspended in trypsin/EDTA solution. The tissue suspension was incubated at 37° C. and gently agitated to disperse the cells, which were collected by centrifugation. Cells were resuspended in 4 ml Clinical Medium and placed in a flask and incubated at 37° C. in a humidified CO2 incubator for 24 h. The media was then replaced with fresh Clinical Medium and the cell growth was monitored daily until a confluent monolayer has formed. The HFF cells were then expanded through serial passages in standard growth medium of MEM with Earl's salts supplemented with 10% FBS and antibiotics. The cells were passaged routinely and used for assays at or below passage 10.
(§3) Primary Cytopathic Effect (CPE) Reduction Assay. Low passage (3-10) HFF cells were trypsinized, counted, and seeded into 96 well tissue culture plates in 0.1 ml of MEM supplemented with 10% FBS. The cells were then incubated for 24 h at 37° C. The media was then removed and 100 μl of MEM containing 2% FBS was added to all but the first row. In the first row, 125 μl of media containing the experimental drug was added in triplicate wells. Media alone was added to both cell and virus control wells. The drug in the first row of wells was then diluted serially 1:5 throughout the remaining. The plates were then incubated for 60 min and 100 μl of a virus suspension was added to each well, excluding cell control wells which received 100 μl of MEM. The plates were then incubated at 37° C. in a CO2 incubator for three days for HSV-1 and HSV-2, 10 days for VZV, or 14 d for CMV. After the incubation period, media was aspirated and the cells stained with crystal violet in formalin for 4 h. The stain was then removed and the plates were rinsed until all excess stain was removed. The plates were allowed to dry for 24 h and the amount of CPE in each row determined using a BioTek Multiplate Autoreader. EC50 and CC50 values were determined by comparing drug treated and untreated cells using a computer program.

[2] = test system: hCMV2 GDGRK17; test: Primary CPE reduction assay in HFF cells, hCMV GDGRK17; format: cell-based, human Cytomegalovirus; conditions: for EC50: Human betaherpesvirus 5, HFF, read-out: EC50 (50% reduction in the Cytopathic Effect of the virus); for TI (therapeutic index derived from EC50/CC50): hCMV2 GDGRK17, HFF cells
Protocol: as §1, §2, §3

[3] = test system: hCMV1 AD169; test: Primary CPE reduction assay in HFF cells, hCMV AD169; format: cell-based, human Cytomegalovirus
Protocol: as §1, §2, §3

[4] = test system: HSV2 G; test: Primary CPE reduction assay in HFF cells, HSV2 G; format: cell-based, Herpes Simplex Virus 2
Protocol: as §1, §2, §3

[5] = test system: VZV Ellen; test: microbe, parasite or virus in culture; format: cell-based, Vericella Zoster Virus
Protocol: as §1, §2, §3

[6] = test system: Human Cytomegalovirus Strain AD169; test: Additional study versus Human Cytomegalovirus Strain AD169 in HFF cells (procedures of US 2011/0263535 A1); format: cell-based
Protocol: Additional studies in HFF cells were performed using the procedures as outlined in US Patent Application Publication No: 2011/0263535 A1 with compounds of 120, 121, and 122. Each of the compounds were tested versus Human Cytomegalovirus Strain AD169 in HFF cells using ganciclovir as a comparator.

[7] = test system: mCMV Smith; test: Primary CPE reduction assay, mCMV Smith; format: cell-based, murine Cytomegalovirus; conditions: for EC50: Murid betaherpesvirus 1, read-out: EC50 (50% reduction in the Cytopathic Effect of the virus)
[8] = test system: HSV1 strain DM2.1; test: Primary CPE reduction assay in HFF cells, HSV1 strain DM2.1; format: cell-based, Herpes Simplex Virus 1
Protocol: as §1, §2
Primary Cytopathic Effect (CPE) Reduction Assay. Low passage (3-10) HFF cells were trypsinized, counted, and seeded into 96 well tissue culture plates in 0.1 ml of MEM supplemented with 10% FBS. […] The plates were allowed to dry for 24 h and the amount of CPE in each row determined using a BioTek Multiplate Autoreader. EC50 and CC50 values were determined by comparing drug treated and untreated cells using a computer program.

[9] = Human alphaherpesvirus 1, HFF, read-out: EC50 (50% reduction in the Cytopathic Effect of the virus)
[10] = Human betaherpesvirus 5, AD169, HFF, read-out: EC50 (50% reduction in the Cytopathic Effect of the virus)
[11] = Human alphaherpesvirus 2, HFF, read-out: EC50 (50% reduction in the Cytopathic Effect of the virus)
[12] = Human alphaherpesvirus 3, HFF, read-out: EC50 (50% reduction in the Cytopathic Effect of the virus)
[13] = Human Cytomegalovirus Strain AD169 in HFF cells
[14] = Human betaherpesvirus 5, AD169, HFF
[15] = Human betaherpesvirus 5, read-out: EC50 (50% reduction in the Cytopathic Effect of the virus), hCMV1 AD169, HFF cells
[16] = Human alphaherpesvirus 1, read-out: EC50 (50% reduction in the Cytopathic Effect of the virus), HSV1 E377, HFF cells
[17] = Human alphaherpesvirus 2, read-out: EC50 (50% reduction in the Cytopathic Effect of the virus), HSV2 G, HFF cells

Structure (SMILES)	TI (therapeutic index derived from EC50/CC50) ([1]; HSV1 E377, HFF cells)	EC50 [1, 9] [nM]	EC50 [2] [nM]	TI (therapeutic index derived from EC50/CC50) [2]	EC50 [3, 10] [nM]	TI (therapeutic index derived from EC50/CC50) ([3]; hCMV1 AD169, HFF cells)	TI (therapeutic index derived from CC50/EC50) ([4]; HSV2 G, HFF cells)	EC50 [4, 11] [nM]	EC50 [5, 12] [nM]	TI (therapeutic index derived from EC50/CC50) ([5]; VZV Ellen, HFF cells)	Therapeutic index EC90/HFF Cytotoxicity 50% [6, 13]	EC90 [6, 14] [nM]	EC50 [7] [nM]	TI (therapeutic index derived from EC50/CC50) ([7]; mCMV Smith)	EC50 [3, 15] [nM]	EC50 [1, 16] [nM]	further results
N.Nc1ccn(C[C@@H](CO)OCP(=O)(O)OCCCS(=O)(=O)CCCCCCCCCCC2CCC2)c(=O)n1 [Compound 120, Ammonium 3-((10-cyclobutyldecyl)sulfonyl)propyl hydrogen ((((S)-1-(4-amino-2-oxopyrimidin-1(2H)-yl)-3-hydroxypropan-2-yl)oxy)methyl)phosphonate]	149	70	< 0.3	>2772	8	74	>3950	10	20	25	>37	< 20	< 0.3	>3125			
CCCCCCCCCCCCCCCCCCS(=O)(=O)CCCOP(=O)(OCCCS(=O)(=O)CCCCCCCCCCCCCCCCCC)C(=O)OCC [Compound 125, Ethyl (bis(3-(octadecylsulfonyl)propoxy)phosphoryl)formate]						>1									132000		
N.Nc1ccn(C[C@@H](CO)OCP(=O)(O)OCCCS(=O)(=O)CCCCCCCCCCCCCC2CCC2)c(=O)n1 [Compound 122, Ammonium 3-((13-cyclobutyltridecyl)sulfonyl)propyl hydrogen ((((S)-1-(4-amino-2-oxopyrimidin-1(2H)-yl)-3-hydroxypropan-2-yl)oxy)methyl)phosphonate]	469	20	< 0.3	>2209	< 10	>19	>14	140	7	31	>13	< 20	< 0.3	>3125			
CCOC(=O)P(=O)(OCCCS(=O)(=O)CCCCCCCC1(C)COC1)OCCCS(=O)(=O)CCCCCCCC1(C)COC1 [Compound 124, Ethyl (bis(3-((7-(3-methyloxetan-3-yl)heptyl)sulfonyl)-propoxy)phosphoryl)formate]	1					1									> 150000	> 150000	
N.Nc1ccn(C[C@@H](CO)OCP(=O)(O)OCCCS(=O)(=O)CCCCCCCCCCCCCCC2CCC2)c(=O)n1 [Compound 123, Ammonium 3-((14-cyclobutyltetradecyl)sulfonyl)propyl (S)-(((1-(4-amino-2-oxopyrimidin-1(2H)-yl)-3-hydroxypropan-2-yl)oxy)methyl)phosphonate]					< 50	>5											TI (therapeutic index derived from EC50/CC50) ([8]; HSV1 strain DM2.1 (footnote a), HFF cells): >142^a; EC50 [8, 9]: < 50 nM
CC1(CCCCCCCCCCCCS(=O)(=O)CCCOP(=O)(O)CO[C@H](CO)Cn2cnc(N)cc2=O)COC1 [Compound 110, Ammonium 3-((12-(3-methyloxetan-3-yl)dodecyl)sulfonyl)propyl Hydrogen ((((S)-1-(4-amino-6-oxopyrimidin-1(6H)-yl)-3-hydroxypropan-2-yl)oxy)methyl)phosphonate]	>313		< 0.3	>3125		184	>1250			225				2213	10	160	EC50 [4, 17]: 40 nM; EC50 ([5]; Human alphaherpesvirus 3, read-out: EC50 (50% reduction in the Cytopathic Effect of the virus), VZV Ellen, HFF cells): 10 nM; EC50 ([7]; mCMV Smith): < 0.3 nM
N.Nc1ccn(C[C@@H](CO)OCP(=O)(O)OCCCS(=O)(=O)CCCCCCCCCCCCC2CCC2)c(=O)n1 [Compound 121, Ammonium 3-((12-cyclobutyldodecyl)sulfonyl)propyl hydrogen ((((S)-1-(4-amino-2-oxopyrimidin-1(2H)-yl)-3-hydroxypropan-2-yl)oxy)methyl)phosphonate]	1159	10	< 0.3	>2753	< 10	>19	498	10	10	23	>15	< 20	< 0.3	>3125			
Nc1nc(O)c2ncn(COC(CO)CO)c2n1 [Ganciclovir, reference compound]			150	>1030		>92					1			>882	1630		EC90 ([6]; Human betaherpesvirus 5, Human Cytomegalovirus Strain AD169 in HFF cells, read-out: EC90): > 150000 nM; EC50 ([7]; mCMV Smith): 170 nM
Nc1nc2c(ncn2COCCO)c(=O)[nH]1 [Acyclovir, reference compound]																960	EC50 [4, 17]: 380 nM
CCOC(=O)P(=O)(OCCCS(=O)(=O)CCCCC1CCC1)OCCCS(=O)(=O)CCCCC1CCC1 [Compound 119, Ethyl (bis(3-((4-cyclobutylbutyl)sulfonyl)propoxy)phosphoryl)formate]						<3									> 30000		
